US20090036509A1, “N-(Ortho-Phenyl)-1-Methyl -3-Trifluoromethlpyrazole-4-Carboxanilides and Their Use as Fungicides” (BASF Aktiengesellschaft, priority 2004, published 2009)

Tests used:
Puccinia recondita = experiment: Curative activity against brown rust of wheat caused by Puccinia recondita; type: in vivo; settings: wheat seedlings sprayed 1 day after inoculation, rated after 7 days, untreated 90%; for Infection in % at 4 ppm using PUCCRT K1: Use Example 2
Description: The active compounds were prepared as a stock solution with 25 mg of active compound which was made up to 10 ml with a mixture of acetone and/or DMSO and the emulsifier Uniperol® EL (wetting agent having emulsifying and dispersing action based on ethoxylated alkyl phenols) in a volume ratio solvent/emulsifier of 99 to 1. The solution was then made up to 100 ml with water. This stock solution was diluted to the active compound concentrations stated below using the solvent/emulsifier/water mixture described. Curative Activity Against Brown Rust of Wheat Caused by Puccinia Recondita Leaves of potted wheat seedlings of the cultivar “Kanzler” were inoculated with a spore suspension of brown rust (Puccinia recondita). The pots were then placed in a chamber with high atmospheric humidity (90 to 95%) and at 20-22° C. for 24 hours. During this time, the spores germinated and the germ tubes penetrated into the leaf tissue. The next day, the infected plants were sprayed to runoff point with an aqueous suspension having the concentration of active compounds stated below. The suspension or emulsion was prepared as described above. After the spray coating had dried on, the test plants were cultivated in a greenhouse at temperatures between 20 and 22° C. and at 65 to 70% relative atmospheric humidity for 7 days. The extent of the rust fungus development on the leaves was then determined. Curative Activity Against Brown Rust of Wheat Caused by Puccinia Recondita Leaves of potted wheat seedlings of the cultivar “Kanzler” were inoculated with a spore suspension of brown rust (Puccinia recondita). The pots were then placed in a chamber with high atmospheric humidity (90 to 95%) and at 20-22° C. for 24 hours During this time, the spores germinated and the germ tubes penetrated into the leaf tissue. The next day, the infected plants were sprayed to runoff point with an aqueous suspension having the concentration of active compounds stated below. The suspension or emulsion was prepared as described above. After the spray coating had dried on, the test plants were cultivated in a greenhouse at temperatures between 20 and 22° C. and at 65 to 70% relative atmospheric humidity for 7 days. The extent of the rust fungus development on the leaves was then determined. Curative Activity Against Brown Rust of Wheat Caused by Puccinia Recondita Leaves of potted wheat seedlings of the cultivar “Kanzler” were inoculated with a spore suspension of brown rust (Puccinia recondita). The pots were then placed in a chamber with high atmospheric humidity (90 to 95%) and at 20-22° C. for 24 hours. During this time, the spores germinated and the germ tubes penetrated into the leaf tissue. The next day, the infected plants were sprayed to runoff point with an aqueous suspension having the concentration of active compounds stated below. The suspension or emulsion was prepared as described above. After the spray coating had dried on, the test plants were cultivated in a greenhouse at temperatures between 20 and 22° C. and at 65 to 70% relative atmospheric humidity for 7 days. The extent of the rust fungus development on the leaves was then determined.

Botrytis cinerea = experiment: Activity against gray mold on bell pepper leaves caused by Botrytis cinerea, protective application; type: in vivo; settings: visual rating after 5 days, untreated 90%
Description: The active compounds were prepared as a stock solution with 25 mg of active compound which was made up to 10 ml with a mixture of acetone and/or DMSO and the emulsifier Uniperol® EL (wetting agent having emulsifying and dispersing action based on ethoxylated alkyl phenols) in a volume ratio solvent/emulsifier of 99 to 1. The solution was then made up to 100 ml with water. This stock solution was diluted to the active compound concentrations stated below using the solvent/emulsifier/water mixture described. Activity Against Gray Mold on Bell Pepper Leaves Caused by Botrytis Cinerea Protective Application Bell pepper seedlings of the cultivar “Neusiedler Ideal Elite” were, after 2-3 leaves were well developed, sprayed to runoff point with an aqueous suspension having the concentration of active compounds stated below. The next day, the treated plants were inoculated with a spore suspension of Botrytis cinerea which contained 1.7×10^6 spores/ml in a 2% strength aqueous biomalt solution. The test plants were then placed in a dark climatized chamber at 22-24° C. and high atmospheric humidity. After 5 days, the extent of the fungal infection on the leaves could be determined visually in %. […]

[1] = Use Example 4, bell pepper seedlings sprayed 1 day before inoculation
[2] = Use Example 1, bell pepper seedlings sprayed 1 day before inoculation

Row | SMILES | Infection in % at 250 ppm using PUCCRT K1 (Puccinia recondita; Use Example 3) [%] | Infection in % at 4 ppm using BOTRCI P1 (Botrytis cinerea; [1]) [%] | Infection in % at 250 ppm using PUCCRT K1 (Puccinia recondita; Use Example 5) [%] | Infection in % at 4 ppm using BOTRCI P1 (Botrytis cinerea; [2]) [%] | Infection in % at 4 ppm using PUCCRT K1 (Puccinia recondita) [%]
1 | COc1ccc(-c2ccccc2NC(=O)c2cn(C)nc2C(F)(F)F)cc1 [Comp. 38of EP-A05 89 301] | 60 | – | – | – | –
2 | Cc1ccccc1-c1ccccc1NC(=O)c1cn(C)nc1C(F)(F)F [Comp. 41of EP-A05 89 301] | – | 25 | 60 | – | –
3 | COc1ccc(-c2ccccc2NC(=O)c2cn(C)nc2C(F)(F)F)c(F)c1 [Comp. 67.14] | 7 | – | – | – | –
4 | Cn1cc(C(=O)Nc2ccccc2-c2ccc(F)cc2)c(C(F)(F)F)n1 [Comp. 37of EP-A05 89 301] | – | – | – | 70 | 30
5 | Cn1cc(C(=O)Nc2ccccc2-c2ccc(F)c(F)c2)c(C(F)(F)F)n1 [Comp. 67.4] | – | – | – | 40 | 5
6 | Cc1cc(Cl)ccc1-c1ccccc1NC(=O)c1cn(C)nc1C(F)(F)F [67.8] | – | 0 | 0 | – | –
